Results as given in ChEMBL document CHEMBL1201862, “PubChem BioAssay data set” (2004).
Active and inactive are the calls of the source.

Assays:
Caspase-3 = target: T1, Caspase-3 (Homo sapiens, UniProt P42574); test: activators of human procaspase-3 D3A mutant – biochemical, absorbance, PC-3 D3A mutant, counter-screen for dual procaspase-3/7 activator project, dose response (AID 504328)
T1 sequence (P42574 whole entry): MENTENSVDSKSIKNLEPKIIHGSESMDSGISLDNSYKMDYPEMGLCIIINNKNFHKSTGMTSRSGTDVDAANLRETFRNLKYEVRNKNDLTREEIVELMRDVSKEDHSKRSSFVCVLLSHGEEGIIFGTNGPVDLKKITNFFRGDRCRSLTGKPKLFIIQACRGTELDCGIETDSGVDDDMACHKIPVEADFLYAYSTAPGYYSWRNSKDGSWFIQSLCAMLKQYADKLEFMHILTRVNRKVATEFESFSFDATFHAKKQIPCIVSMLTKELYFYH

Caspase-7 = Caspase-7 (Homo sapiens, UniProt P55210); test: potency of procaspase-7 enzyme activation – biochemical, absorbance, human, dual procaspase-3/-7 activator project, dose response (AID 504330)
HEK293 [1] = test: inhibition of NOD1-driven NF-kB reporter – cell-based, luminescence, uHTS, primary screen (AID 1578); format: functional; conditions: Homo sapiens
HEK293 [2] = test: cells; format: functional, cell-based; conditions: Homo sapiens
HEK293 [3] = test: cells; format: functional, cell-based; conditions: Homo sapiens; remark: listed apart in the source
HEK293 [4] = test: NOD2 signaling inhibitors in MDP-stimulated cells, cell-based, uHTS, luminescence (AID 2001); format: functional; conditions: Homo sapiens
Tumor necrosis factor = Tumor necrosis factor (Homo sapiens, UniProt P01375); test: analog potency on TNFa NF-kB signaling – cell-based, revised, SAR follow-up (AID 2337); format: functional
[5] = target: T2, Nucleotide-binding oligomerization domain-containing protein 1 (Homo sapiens, UniProt Q9Y239); test: blockers of NOD1 pathway activity – revised, SAR follow-up (AID 2333); format: functional
T2 sequence (Q9Y239 whole entry): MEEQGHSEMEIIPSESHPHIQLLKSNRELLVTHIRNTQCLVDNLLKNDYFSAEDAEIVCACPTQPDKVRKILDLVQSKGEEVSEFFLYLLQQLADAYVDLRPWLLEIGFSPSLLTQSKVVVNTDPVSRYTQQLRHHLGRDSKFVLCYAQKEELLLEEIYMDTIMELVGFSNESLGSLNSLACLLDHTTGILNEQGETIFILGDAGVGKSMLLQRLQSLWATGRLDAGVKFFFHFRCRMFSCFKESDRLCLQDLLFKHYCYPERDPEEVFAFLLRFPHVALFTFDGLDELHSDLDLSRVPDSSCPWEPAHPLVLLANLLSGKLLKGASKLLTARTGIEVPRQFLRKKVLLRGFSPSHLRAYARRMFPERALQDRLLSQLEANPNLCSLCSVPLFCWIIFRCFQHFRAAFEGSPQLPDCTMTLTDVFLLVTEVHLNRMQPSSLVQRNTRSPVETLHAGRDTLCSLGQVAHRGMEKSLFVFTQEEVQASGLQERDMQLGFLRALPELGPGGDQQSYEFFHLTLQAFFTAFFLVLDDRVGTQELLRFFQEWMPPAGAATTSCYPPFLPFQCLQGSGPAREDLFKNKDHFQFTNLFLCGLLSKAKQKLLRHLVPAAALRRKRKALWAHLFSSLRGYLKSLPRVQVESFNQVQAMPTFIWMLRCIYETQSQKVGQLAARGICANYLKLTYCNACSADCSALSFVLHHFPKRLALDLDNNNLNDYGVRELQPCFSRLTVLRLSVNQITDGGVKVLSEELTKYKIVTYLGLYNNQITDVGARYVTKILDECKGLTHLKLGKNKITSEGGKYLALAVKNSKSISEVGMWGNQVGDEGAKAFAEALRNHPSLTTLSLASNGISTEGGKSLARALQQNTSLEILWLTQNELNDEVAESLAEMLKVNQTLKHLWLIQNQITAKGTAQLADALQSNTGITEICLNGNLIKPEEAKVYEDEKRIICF

[6] = target: T3, Ubiquitin-conjugating enzyme E2 N (Homo sapiens, UniProt P61088); format: functional;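 also: Dose-response confirmation in a TR-FRET assay detecting UBC13-driven polyubiquitin chain formation, inhibition measured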
T3 sequence (P61088 whole entry): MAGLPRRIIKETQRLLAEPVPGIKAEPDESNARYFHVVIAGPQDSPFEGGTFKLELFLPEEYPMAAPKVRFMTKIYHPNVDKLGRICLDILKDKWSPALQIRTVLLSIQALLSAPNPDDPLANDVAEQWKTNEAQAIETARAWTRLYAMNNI

[7] = target: Nucleotide-binding oligomerization domain-containing protein 2 (Homo sapiens, UniProt Q9HC29); test: PubChem AID 2334; format: functional
Chain of Nucleotide-binding oligomerization domain-containing protein 2 (Q9HC29 whole entry, the tested form may be a part): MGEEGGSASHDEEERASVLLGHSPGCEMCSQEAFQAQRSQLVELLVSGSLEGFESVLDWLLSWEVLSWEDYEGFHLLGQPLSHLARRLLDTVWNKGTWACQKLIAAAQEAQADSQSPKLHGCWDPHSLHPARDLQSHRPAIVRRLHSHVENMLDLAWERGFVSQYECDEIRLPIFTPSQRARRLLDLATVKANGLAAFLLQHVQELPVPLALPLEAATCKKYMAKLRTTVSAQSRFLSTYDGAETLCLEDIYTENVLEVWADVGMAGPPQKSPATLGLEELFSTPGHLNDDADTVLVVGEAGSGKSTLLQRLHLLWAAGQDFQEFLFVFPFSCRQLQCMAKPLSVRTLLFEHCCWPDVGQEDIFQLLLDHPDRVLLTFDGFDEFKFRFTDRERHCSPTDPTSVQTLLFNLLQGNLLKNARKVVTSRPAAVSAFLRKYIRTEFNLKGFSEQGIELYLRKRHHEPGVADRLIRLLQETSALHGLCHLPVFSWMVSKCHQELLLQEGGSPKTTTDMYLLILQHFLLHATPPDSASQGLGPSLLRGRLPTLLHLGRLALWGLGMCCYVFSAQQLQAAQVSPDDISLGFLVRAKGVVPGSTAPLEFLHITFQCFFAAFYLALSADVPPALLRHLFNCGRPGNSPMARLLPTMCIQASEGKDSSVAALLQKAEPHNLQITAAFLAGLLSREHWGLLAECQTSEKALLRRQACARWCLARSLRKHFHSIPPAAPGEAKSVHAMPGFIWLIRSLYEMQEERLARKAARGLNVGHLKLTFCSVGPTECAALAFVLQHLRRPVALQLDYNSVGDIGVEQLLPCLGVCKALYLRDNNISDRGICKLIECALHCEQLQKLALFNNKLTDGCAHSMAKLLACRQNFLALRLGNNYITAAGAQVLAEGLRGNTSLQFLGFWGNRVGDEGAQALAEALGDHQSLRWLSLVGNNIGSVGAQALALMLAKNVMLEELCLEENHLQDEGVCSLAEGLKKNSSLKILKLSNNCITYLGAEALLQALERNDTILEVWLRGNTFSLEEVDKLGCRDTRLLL

HEK293 [8] = test: cells; conditions: Homo sapiens
[9] = target: Potassium voltage-gated channel subfamily KQT member 2 (Rattus norvegicus, UniProt O88943); test: potentiation of rat KCNQ2 current – cell-based, retigabine-insensitive compounds, dose response (AID 2654); format: functional
[10] = NIH-3T3 fibroblast cytotoxicity, dose response, cytotoxicity control, cell-based, fluorescence, Alamar Blue, secondary assay (AID 2327); format: functional;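 also: NIH-3T3 mouse fibroblasts cultured with fluconazole at 8 µg/mL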
[11] = target: T4, RNA-binding protein pos-1 (Caenorhabditis elegans, UniProt G5EF15); test: disruptors of C. elegans POS-1 RNA interaction – biochemical, fluorescence polarization, dose response (AID 1964);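 also: purified POS-1 fused to maltose binding protein made in E. coli; potency of compounds blocking POS-1 binding to fluorescent RNA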
T4 sequence (G5EF15 whole entry): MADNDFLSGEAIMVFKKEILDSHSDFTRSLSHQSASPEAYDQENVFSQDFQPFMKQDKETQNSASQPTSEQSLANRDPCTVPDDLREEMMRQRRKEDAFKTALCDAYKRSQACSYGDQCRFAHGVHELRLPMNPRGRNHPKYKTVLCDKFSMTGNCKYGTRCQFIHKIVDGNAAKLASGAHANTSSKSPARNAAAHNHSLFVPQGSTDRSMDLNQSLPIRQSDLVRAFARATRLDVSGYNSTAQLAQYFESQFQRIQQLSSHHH

[12] = target: Peroxisome proliferator-activated receptor gamma/Nuclear receptor coactivator 1 (Homo sapiens, UniProt P37231); test: (§1) TR-FRET dose response biochemical High Throughput Screening assay for agonists of the steroid receptor coactivator 1 (SRC-1) recruitment by the peroxisome proliferator-activated receptor gamma (PPAR gamma): non-selective agonists. [Related pubchem assays (depositor defined):AID1300, AID1808, AID504735, AID631]; format: protein assay
Chain of Peroxisome proliferator-activated receptor gamma/Nuclear receptor coactivator 1 (P37231 whole entry): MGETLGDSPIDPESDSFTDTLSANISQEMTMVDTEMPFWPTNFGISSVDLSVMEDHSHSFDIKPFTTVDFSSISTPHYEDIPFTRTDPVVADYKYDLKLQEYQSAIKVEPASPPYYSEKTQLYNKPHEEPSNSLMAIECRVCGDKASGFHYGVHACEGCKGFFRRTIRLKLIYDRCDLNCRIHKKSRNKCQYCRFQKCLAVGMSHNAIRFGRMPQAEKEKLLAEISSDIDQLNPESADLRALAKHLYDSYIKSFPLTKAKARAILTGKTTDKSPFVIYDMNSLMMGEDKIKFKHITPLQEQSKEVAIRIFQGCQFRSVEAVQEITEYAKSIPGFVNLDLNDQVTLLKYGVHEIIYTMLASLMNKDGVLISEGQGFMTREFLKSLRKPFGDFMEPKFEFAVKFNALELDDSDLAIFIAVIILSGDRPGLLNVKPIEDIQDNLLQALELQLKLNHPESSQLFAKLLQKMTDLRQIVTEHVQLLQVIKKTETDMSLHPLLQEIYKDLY
Chain of Peroxisome proliferator-activated receptor gamma/Nuclear receptor coactivator 1 (Q15788 whole entry, further chain): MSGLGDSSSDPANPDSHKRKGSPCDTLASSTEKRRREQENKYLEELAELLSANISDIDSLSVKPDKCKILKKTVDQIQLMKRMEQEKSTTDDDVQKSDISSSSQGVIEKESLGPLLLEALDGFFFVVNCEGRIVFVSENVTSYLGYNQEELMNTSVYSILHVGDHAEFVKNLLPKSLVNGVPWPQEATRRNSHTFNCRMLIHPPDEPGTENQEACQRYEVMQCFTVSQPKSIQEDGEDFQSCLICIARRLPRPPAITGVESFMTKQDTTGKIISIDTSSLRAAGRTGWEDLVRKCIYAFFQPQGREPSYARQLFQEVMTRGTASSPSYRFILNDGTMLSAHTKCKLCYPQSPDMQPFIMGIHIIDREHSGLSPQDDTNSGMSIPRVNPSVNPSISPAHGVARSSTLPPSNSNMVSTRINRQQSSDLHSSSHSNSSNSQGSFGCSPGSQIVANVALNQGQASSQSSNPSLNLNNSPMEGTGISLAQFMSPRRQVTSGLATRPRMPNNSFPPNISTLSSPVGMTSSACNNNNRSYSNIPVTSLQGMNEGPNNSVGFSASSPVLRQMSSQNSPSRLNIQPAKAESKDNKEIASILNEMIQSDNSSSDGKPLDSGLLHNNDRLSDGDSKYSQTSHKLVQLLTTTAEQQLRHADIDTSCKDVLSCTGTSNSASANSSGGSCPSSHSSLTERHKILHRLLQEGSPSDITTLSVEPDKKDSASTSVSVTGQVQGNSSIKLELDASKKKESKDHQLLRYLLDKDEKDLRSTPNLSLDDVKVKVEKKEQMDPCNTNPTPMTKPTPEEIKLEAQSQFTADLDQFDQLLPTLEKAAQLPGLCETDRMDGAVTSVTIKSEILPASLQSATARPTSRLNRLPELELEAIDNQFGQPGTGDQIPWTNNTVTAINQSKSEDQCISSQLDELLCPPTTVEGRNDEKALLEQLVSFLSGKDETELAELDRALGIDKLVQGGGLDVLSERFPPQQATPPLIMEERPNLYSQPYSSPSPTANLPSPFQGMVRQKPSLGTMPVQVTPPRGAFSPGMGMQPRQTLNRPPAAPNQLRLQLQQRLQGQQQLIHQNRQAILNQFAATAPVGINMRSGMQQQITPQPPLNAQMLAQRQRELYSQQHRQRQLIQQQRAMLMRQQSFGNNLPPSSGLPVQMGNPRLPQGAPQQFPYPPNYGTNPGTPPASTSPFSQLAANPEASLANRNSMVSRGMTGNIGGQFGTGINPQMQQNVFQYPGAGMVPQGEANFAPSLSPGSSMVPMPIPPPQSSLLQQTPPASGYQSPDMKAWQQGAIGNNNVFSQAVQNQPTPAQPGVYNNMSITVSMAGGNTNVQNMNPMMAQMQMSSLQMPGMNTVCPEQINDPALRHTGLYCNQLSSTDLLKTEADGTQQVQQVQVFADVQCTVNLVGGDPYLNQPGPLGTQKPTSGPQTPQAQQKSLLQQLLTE

[13] = target: Peroxisome proliferator-activated receptor gamma/Nuclear receptor coactivator 3 (Homo sapiens, UniProt P37231); test: as §1, with “3 (SRC-3)” for “1 (SRC-1)”, “assays: 1301 (Confirmation screen.), 1048 (Primary screen.)]” for “assays (depositor defined):AID1300, AID1808, AID504735, AID631]”; format: functional
Chain of Peroxisome proliferator-activated receptor gamma/Nuclear receptor coactivator 3 (P37231 whole entry): as the sequence (P37231 whole entry) above
Chain of Peroxisome proliferator-activated receptor gamma/Nuclear receptor coactivator 3 (Q9Y6Q9 whole entry, further chain): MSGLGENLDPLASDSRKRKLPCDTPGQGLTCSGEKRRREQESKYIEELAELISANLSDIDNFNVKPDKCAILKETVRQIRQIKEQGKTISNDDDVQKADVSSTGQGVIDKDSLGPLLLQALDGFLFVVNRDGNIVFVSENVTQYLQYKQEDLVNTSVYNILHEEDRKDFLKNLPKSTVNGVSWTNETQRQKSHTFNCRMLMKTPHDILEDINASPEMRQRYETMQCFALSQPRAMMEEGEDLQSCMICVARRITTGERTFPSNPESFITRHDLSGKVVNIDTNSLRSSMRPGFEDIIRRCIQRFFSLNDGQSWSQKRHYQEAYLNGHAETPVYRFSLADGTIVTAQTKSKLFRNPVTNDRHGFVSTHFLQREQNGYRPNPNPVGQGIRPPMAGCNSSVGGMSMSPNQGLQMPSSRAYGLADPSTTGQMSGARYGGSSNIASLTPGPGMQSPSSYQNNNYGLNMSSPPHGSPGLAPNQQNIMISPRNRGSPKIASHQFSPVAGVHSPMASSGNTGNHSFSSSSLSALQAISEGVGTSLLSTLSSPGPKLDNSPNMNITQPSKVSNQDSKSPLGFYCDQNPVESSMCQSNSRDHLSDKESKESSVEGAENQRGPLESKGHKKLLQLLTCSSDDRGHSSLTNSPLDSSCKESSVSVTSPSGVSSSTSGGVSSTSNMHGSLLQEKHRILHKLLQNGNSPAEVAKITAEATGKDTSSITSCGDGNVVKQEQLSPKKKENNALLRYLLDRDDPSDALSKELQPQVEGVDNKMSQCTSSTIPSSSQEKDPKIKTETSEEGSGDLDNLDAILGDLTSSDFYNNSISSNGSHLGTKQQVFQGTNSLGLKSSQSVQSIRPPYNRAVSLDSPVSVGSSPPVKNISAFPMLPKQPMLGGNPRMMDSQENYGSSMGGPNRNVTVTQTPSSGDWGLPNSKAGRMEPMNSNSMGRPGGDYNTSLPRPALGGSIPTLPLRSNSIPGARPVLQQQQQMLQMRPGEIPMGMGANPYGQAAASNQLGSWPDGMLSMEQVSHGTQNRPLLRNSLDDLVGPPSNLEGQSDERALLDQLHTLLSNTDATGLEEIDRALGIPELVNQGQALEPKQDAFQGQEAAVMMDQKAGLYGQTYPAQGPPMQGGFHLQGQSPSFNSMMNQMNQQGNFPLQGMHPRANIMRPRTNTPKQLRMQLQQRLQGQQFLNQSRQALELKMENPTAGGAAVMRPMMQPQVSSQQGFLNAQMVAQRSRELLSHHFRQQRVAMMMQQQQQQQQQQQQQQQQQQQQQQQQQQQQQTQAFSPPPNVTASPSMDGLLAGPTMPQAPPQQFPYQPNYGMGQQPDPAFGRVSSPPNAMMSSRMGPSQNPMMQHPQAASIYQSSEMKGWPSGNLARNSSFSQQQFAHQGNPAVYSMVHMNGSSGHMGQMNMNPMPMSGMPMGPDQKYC

[14] = target: T5, Zinc finger protein mex-5 (Caenorhabditis elegans, UniProt Q9XUB2); test: potency of MEX-5 RNA-binding blockers – biochemical, C. elegans, fluorescence polarization, dose response (AID 1960)
T5 sequence (Q9XUB2 whole entry): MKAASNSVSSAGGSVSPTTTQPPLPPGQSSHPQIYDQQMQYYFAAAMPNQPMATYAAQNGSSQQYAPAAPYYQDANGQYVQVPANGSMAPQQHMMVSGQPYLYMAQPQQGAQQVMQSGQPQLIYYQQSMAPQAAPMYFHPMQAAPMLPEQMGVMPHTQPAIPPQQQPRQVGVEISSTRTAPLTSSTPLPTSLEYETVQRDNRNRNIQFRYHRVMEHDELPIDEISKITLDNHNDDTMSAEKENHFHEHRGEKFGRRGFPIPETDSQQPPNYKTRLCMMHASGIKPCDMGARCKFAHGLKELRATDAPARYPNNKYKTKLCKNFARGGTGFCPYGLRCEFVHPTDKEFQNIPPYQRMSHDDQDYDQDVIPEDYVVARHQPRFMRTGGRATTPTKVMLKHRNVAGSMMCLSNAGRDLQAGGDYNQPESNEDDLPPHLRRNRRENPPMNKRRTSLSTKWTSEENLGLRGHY

[15] = fluconazole-exposed Candida albicans growth modulators – fluorescence, retest, confirmation (AID 2467); format: functional, cell-based
[16] = target: Peroxisome proliferator-activated receptor gamma/Nuclear receptor coactivator 2 (Homo sapiens, UniProt P37231); test: TR-FRET dose response biochemical High Throughput Screening assay for agonists of the steroid receptor coactivator 2 (SRC-2) recruitment by the peroxisome proliferator-activated receptor gamma (PPAR gamma): non-selective agonists. [Related pubchem assays: 1297, 1032 ]; format: functional
ORF 73 = ORF 73 (Human herpesvirus 8, UniProt O40947); test: KSHV LANA DNA-binding disruption – biochemical, fluorescence polarization, cherry-picked samples, dose response (AID 504725); parameters: species or system Human gammaherpesvirus 8;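 also: fluorescence polarization of a labeled DNA duplex reporting LANA DNA binding; potency is for inhibitors that block LANA binding to the DNA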
[17] = target: UDP-galactopyranose mutase (Mycobacterium tuberculosis, UniProt P9WIQ1); test: Inhibitors of Mycobacterium tuberculosis UDP-galactopyranose mutase (UGM) enzyme Measured in Biochemical System Using Plate Reader - 2105-02_Inhibitor_Dose_CherryPick_Activity. [Related pubchem assays (depositor defined):AID504439]
Keap1/Nrf2 = Keap1/Nrf2 (Homo sapiens, UniProt Q14145); test: disruptors of Keap1 binding to Nrf2 peptide – biochemical, fluorescence polarization, cherry-picked samples, dose response (AID 588683)

For `COc1cccc(NC(=O)c2ccnc(N3CCC(C(=O)NCc4cc(OC)ccc4OC)CC3)c2)c1`, the EC50 (Caspase-3) was > 85.3 µM (inactive) and the EC50 (Caspase-7) was > 85.3 µM (inactive).
For `O=S(=O)(Nc1nc2ccccc2[nH]1)c1ccc(Cl)cc1`, the EC50 (HEK293 [1]) was 2.29 µM (active), the IC50 (HEK293 [2]) was > 20 µM (inactive) and the IC50 (HEK293 [3]) was > 20 µM (inactive). For the same compound, the IC50 (HEK293 [4]) was > 20 µM (inactive), the IC50 (Tumor necrosis factor) was > 20 µM (inactive) and the IC50 [5] was 1.52 µM (active). The IC50 [6] was > 20 µM (inactive), the IC50 [7] was > 20 µM (inactive) and the IC50 (HEK293 [8]) was > 20 µM (inactive).
In the case of `O=C(NCc1ccc(Cl)cc1Cl)Nc1cncc(F)c1`, the EC50 [9] is reported as 8.64 µM (active).
In the case of `COc1ccc(C2C(C(=O)c3cccs3)=C(O)C(=O)N2c2nncs2)cc1` (configuration not stated), the EC50 [10] is reported as > 150 µM (inconclusive), the EC50 [11] is reported as 0.549 µM (inconclusive) and the EC50 [12] is reported as > 79.4 µM (inactive). The EC50 [13] was > 79.4 µM (not active), the EC50 [14] was 0.1 µM (inconclusive) and the EC50 [15] was > 38 µM (not active). For the same compound, the EC50 [16] was > 79.4 µM (not active), the AC50 (ORF 73) was 7.29 µM (active) and the AC50 [17] was 51.7 µM (active). The AC50 (Keap1/Nrf2) was 20.3 µM (active).
